Data published in patent US9290451B2 (Hoffmann-La Roche Inc., priority 2011, dated 2016).

Legend:
human CB2 receptors = human CB2 receptors (Homo sapiens (Human), UniProt P34972); assay: cAMP assay, CHO cells expressing human CB2 receptors; format: cell-based; conditions: CHO cells expressing human CB2, cAMP; read-out: human CB2 EC50
How it was run: (§1)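 Seed CHO cells 17–24 h ahead; replace medium with Krebs Ringer bicarbonate containing 1 mM IBMX for 30 min at 30 °C; add compounds for 30 min at 30 °C; lyse, add TR-FRET cAMP reagents for 2 h at room temperature; read and convert to cAMP via standard curve; fit EC50.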

human CB1 receptors = human CB1 receptors (Homo sapiens (Human), UniProt P21554); assay: cAMP assay, CHO cells expressing human CB1 receptors; format: cell-based; conditions: CHO cells expressing human CB1, cAMP; read-out: human CB1 EC50
How it was run: as §1

Sequence of human CB1 receptors (P21554 whole entry): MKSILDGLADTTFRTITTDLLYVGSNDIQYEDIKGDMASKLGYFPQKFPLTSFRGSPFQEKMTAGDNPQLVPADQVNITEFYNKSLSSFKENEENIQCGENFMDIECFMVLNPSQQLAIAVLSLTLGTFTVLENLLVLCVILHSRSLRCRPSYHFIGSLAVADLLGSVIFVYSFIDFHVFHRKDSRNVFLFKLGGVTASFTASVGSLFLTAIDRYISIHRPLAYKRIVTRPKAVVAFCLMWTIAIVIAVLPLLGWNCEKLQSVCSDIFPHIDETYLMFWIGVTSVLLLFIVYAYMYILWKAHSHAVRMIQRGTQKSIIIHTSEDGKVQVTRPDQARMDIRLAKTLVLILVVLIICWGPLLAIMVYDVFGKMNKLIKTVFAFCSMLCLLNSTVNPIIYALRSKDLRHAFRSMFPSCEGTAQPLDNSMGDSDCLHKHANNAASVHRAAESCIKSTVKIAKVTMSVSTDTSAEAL
Sequence of human CB2 receptors (P34972 whole entry): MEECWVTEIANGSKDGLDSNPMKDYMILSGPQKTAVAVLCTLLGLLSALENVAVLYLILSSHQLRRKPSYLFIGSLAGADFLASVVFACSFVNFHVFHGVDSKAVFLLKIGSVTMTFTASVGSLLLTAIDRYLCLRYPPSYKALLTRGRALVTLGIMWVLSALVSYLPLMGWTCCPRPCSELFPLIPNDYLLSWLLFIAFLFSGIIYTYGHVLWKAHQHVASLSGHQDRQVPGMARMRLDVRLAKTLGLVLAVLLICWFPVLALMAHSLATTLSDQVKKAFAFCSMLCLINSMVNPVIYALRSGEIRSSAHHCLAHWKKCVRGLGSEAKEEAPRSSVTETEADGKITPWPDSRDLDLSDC

In the case of CC(C)(C)[C@H](NC(=O)c1ccc(N2CC(F)(F)C2)c(OCC2CC2)n1)C(=O)N1CC(F)(F)C1 [Example 310, 6-Cyclopropylmethoxy-5-(3,3-difluoro-azetidin-1-yl)-pyridine-2-carboxylic acid [(S)-1-(3,3-difluoro-azetidine-1-carbonyl)-2,2-dimethyl-propyl]-amide], the EC50 (human CB2 receptors) is reported as 0.0147 µM and the EC50 (human CB1 receptors) is reported as greater than 10 µM.

O=C(NN1CCCCC1)c1cccc(C2CCOCC2)n1 [Example 37, 6-(Tetrahydro-pyran-4-yl)-pyridine-2-carboxylic acid piperidin-1-ylamide] was tested, and the EC50 (human CB2 receptors) was 0.625 µM and the EC50 (human CB1 receptors) was greater than 10 µM.

Work on Cc1nc(C2(NC(=O)c3ccc(C4CC4)c(OCc4ccccn4)n3)CCC2)no1 [Example 189, 5-Cyclopropyl-N-(1-(5-methyl-1,2,4-oxadiazol-3-yl)cyclobutyl)-6-(pyridin-2-ylmethoxy)picolinamide] yielded an EC50 (human CB2 receptors) of 0.381 µM and an EC50 (human CB1 receptors) greater than 10 µM.

Work on COC(=O)C(C)(C)NC(=O)c1ccc(-c2cc[nH]n2)c(OCC2CC2)n1 [Example 13, 2-{[6-Cyclopropylmethoxy-5-(1H-pyrazol-3-yl)-pyridine-2-carbonyl]-amino}-2-methyl-propionic acid methyl ester] yielded an EC50 (human CB2 receptors) of 0.426 µM and an EC50 (human CB1 receptors) greater than 10 µM.

Cc1nc(C2(NC(=O)c3ccc(C4CC4)c(OCC4CC4)n3)CCC2)no1 [Example 171, 5-Cyclopropyl-6-(cyclopropylmethoxy)-N-(1-(5-methyl-1,2,4-oxadiazol-3-yl)cyclobutyl)picolinamide] showed an EC50 (human CB2 receptors) of 0.0468 µM and an EC50 (human CB1 receptors) greater than 10 µM.

For CC1(COc2nc(C(=O)NC3(c4nccs4)COC3)ccc2Br)COC1 [Example 281, 5-Bromo-6-(3-methyl-oxetan-3-ylmethoxy)-pyridine-2-carboxylic acid (3-thiazol-2-yl-oxetan-3-yl)-amide], the EC50 (human CB2 receptors) was 0.447 µM and the EC50 (human CB1 receptors) was greater than 10 µM.

NC(=O)C1(NC(=O)c2ccc(C3CC3)c(OCC3CC3)n2)CCOCC1 [Example 180, 5-Cyclopropyl-6-cyclopropylmethoxy-pyridine-2-carboxylic acid (4-carbamoyl-tetrahydro-pyran-4-yl)-amide] gave an EC50 (human CB2 receptors) of 0.423 µM and an EC50 (human CB1 receptors) greater than 10 µM.

In the case of Cc1nc([C@H](CC2CC2)NC(=O)c2cccc(-c3ccc(F)c(C(F)(F)F)c3)n2)no1 [Example 348, 6-(4-Fluoro-3-trifluoromethyl-phenyl)-pyridine-2-carboxylic acid [(S)-2-cyclopropyl-1-(5-methyl-[1,2,4]oxadiazol-3-yl)-ethyl]-amide], the EC50 (human CB2 receptors) is reported as 0.0246 µM and the EC50 (human CB1 receptors) is reported as greater than 10 µM.

O=C(N[C@@H](c1ccccn1)C(F)(F)F)c1ccc(C2CC2)c(OCC2CC2)n1 [Example 240, 5-Cyclopropyl-6-cyclopropylmethoxy-pyridine-2-carboxylic acid ((−)-2,2,2-trifluoro-1-pyridin-2-yl-ethyl)-amide] was tested, and the EC50 (human CB2 receptors) was 0.0661 µM and the EC50 (human CB1 receptors) was greater than 10 µM.

CC(C)C[C@H](NC(=O)c1ccc(C2(O)COC2)c(OCC2CC2)n1)C(N)=O [Example 150, 6-Cyclopropylmethoxy-5-(3-hydroxy-oxetan-3-yl)-pyridine-2-carboxylic acid ((S)-1-carbamoyl-3-methyl-butyl)-amide] was tested, and the EC50 (human CB2 receptors) was 0.157 µM and the EC50 (human CB1 receptors) was greater than 10 µM.

With CCOC(=O)C(CC)(CC)NC(=O)c1ccc(C2CC2)c(OCC2CC2)n1 [Example 257, 2-[(5-Cyclopropyl-6-cyclopropylmethoxy-pyridine-2-carbonyl)-amino]-2-ethyl-butyric acid ethyl ester] the EC50 (human CB2 receptors) was 0.0023 µM and the EC50 (human CB1 receptors) was 0.347 µM.

CC(C)(NC(=O)c1ccc(N2CC(O)C2)c(OCC2CC2)n1)c1nccs1 [Example 75, 6-Cyclopropylmethoxy-5-(3-hydroxy-azetidin-1-yl)-pyridine-2-carboxylic acid (1-methyl-1-thiazol-2-yl-ethyl)-amide] gave an EC50 (human CB2 receptors) of 0.0152 µM and an EC50 (human CB1 receptors) greater than 10 µM.

With CCOC(=O)C(CC)(CC)NC(=O)c1ccc(N2CCC23COC3)c(OCC2CC2)n1 [Example 263, 2-{[6-Cyclopropylmethoxy-5-(6-oxa-1-aza-spiro[3.3]hept-1-yl)-pyridine-2-carbonyl]-amino}-2-ethyl-butyric acid ethyl ester] the EC50 (human CB2 receptors) was 0.0045 µM and the EC50 (human CB1 receptors) was greater than 10 µM.

O=C(Nc1ccccn1)c1cccc(-c2cccc(Cl)c2)n1 [Example 20, 6-(3-Chloro-phenyl)-pyridine-2-carboxylic acid pyridin-2-ylamide] was tested, and the EC50 (human CB2 receptors) was 0.262 µM and the EC50 (human CB1 receptors) was greater than 10 µM.

NC(=O)[C@H](CC1CC1)NC(=O)c1ccc(C2CCOC2)c(OCC2CC2)n1 (stereo partly drawn) [Example 136, 6-Cyclopropylmethoxy-5-(tetrahydro-furan-3-yl)-pyridine-2-carboxylic acid ((S)-1-carbamoyl-2-cyclopropyl-ethyl)-amide] was tested, and the EC50 (human CB2 receptors) was 0.0654 µM and the EC50 (human CB1 receptors) was greater than 10 µM.

With CC(C)(NC(=O)c1ccc(C2CCCC2)c(OCC2CC2)n1)c1nccs1 [Example 55, 5-Cyclopentyl-6-cyclopropylmethoxy-pyridine-2-carboxylic acid (1-methyl-1-thiazol-2-yl-ethyl)-amide] the EC50 (human CB2 receptors) was 0.0317 µM and the EC50 (human CB1 receptors) was 1.39 µM.

CCC(CC)(NC(=O)c1ccc(C2CC2)c(OCC2CCCO2)n1)C(=O)OC (stereo not drawn) [Example 233, 2-{[5-Cyclopropyl-6-(tetrahydro-furan-2-ylmethoxy)-pyridine-2-carbonyl]-amino}-2-ethyl-butyric acid methyl ester] gave an EC50 (human CB2 receptors) of 0.0001 µM and an EC50 (human CB1 receptors) of 0.071 µM.

CC(C)(NC(=O)c1cccc(-c2cccc(Cl)c2)n1)c1nccs1 [Example 12, 6-(3-Chloro-phenyl)-pyridine-2-carboxylic acid (1-methyl-1-thiazol-2-yl-ethyl)-amide] was tested, and the EC50 (human CB2 receptors) was 0.105 µM and the EC50 (human CB1 receptors) was greater than 10 µM.

For Cc1nc(C(C)(C)NC(=O)c2ccc(C3CC3)c(OCc3ccccn3)n2)no1 [Example 199, 5-Cyclopropyl-N-(2-(5-methyl-1,2,4-oxadiazol-3-yl)propan-2-yl)-6-(pyridin-2-ylmethoxy)picolinamide], the EC50 (human CB2 receptors) was 0.151 µM and the EC50 (human CB1 receptors) was greater than 10 µM.

CCC(CC)(NC(=O)c1cccc(OCC(F)(F)C(F)(F)F)n1)C(=O)NC [Example 297, 6-(2,2,3,3,3-Pentafluoro-propoxy)-pyridine-2-carboxylic acid (1-ethyl-1-methylcarbamoyl-propyl)-amide] gave an EC50 (human CB2 receptors) of 0.962 µM and an EC50 (human CB1 receptors) greater than 10 µM.

In the case of CC(C)C[C@H](NC(=O)c1ccc(C2CC2)c(OCC2CC2)n1)C(N)=O [Example 100, 5-Cyclopropyl-6-cyclopropylmethoxy-pyridine-2-carboxylic acid ((S)-1-carbamoyl-3-methyl-butyl)-amide], the EC50 (human CB2 receptors) is reported as 0.0012 µM and the EC50 (human CB1 receptors) is reported as 0.801 µM.

Compound CNC(=O)[C@@H](NC(=O)c1ccc(C2CC2)c(OCC2CCOCC2)n1)C(C)(C)C [Example 195, (S)-5-Cyclopropyl-N-(3,3-dimethyl-1-(methylamino)-1-oxobutan-2-yl)-6-((tetrahydro-2H-pyran-4-yl)methoxy)picolinamide] has an EC50 (human CB2 receptors) of 0.0014 µM and an EC50 (human CB1 receptors) of 0.206 µM.

CC1(C)CCc2ccc(C(=O)NC[C@](C)(O)C3CC3)nc2C1 [Example 143, 7,7-Dimethyl-5,6,7,8-tetrahydro-quinoline-2-carboxylic acid ((R)-2-cyclopropyl-2-hydroxy-propyl)-amide] was tested, and the EC50 (human CB2 receptors) was 0.41 µM and the EC50 (human CB1 receptors) was greater than 10 µM.

O=C(c1ccc(N2CC(F)(F)C2)c(OCC2CC2)n1)N1CCC[C@H]1CO [Example 149, [6-Cyclopropylmethoxy-5-(3,3-difluoro-azetidin-1-yl)-pyridin-2-yl]-((S)-2-hydroxymethyl-pyrrolidin-1-yl)-methanone] was tested, and the EC50 (human CB2 receptors) was 0.175 µM and the EC50 (human CB1 receptors) was greater than 10 µM.
